Holding throughout (format): physicochemical
Data set [1] is described as follows: DVS test (dynamic vapor sorption, hygroscopicity). The conditions noted are these: for hygroscopicity (in words): DVS. The procedure:
All the three target forms remained no change after DVS test.
Dynamic Vapor Sorption (DVS) was used to study hygroscopicity on Model Q5000 SA (TA Instruments, New Castle, DE). A sample (1-10 mg) was placed in an aluminum pan and loaded on the sample side of the twin pan balance. The water sorption and desorption were studied as a function of relative humidity (RH) at 25° C. in 10% RH increments from 0% RH to 90% RH and then back to 0%. […] Data analysis was performed using Universal Analysis 2000 Version 4.7A (TA Instruments, New Castle, DE).

A short description of data set [2]: Solid-state stability at 60° C. (capped) and 40° C./75% RH (open). The note with it: for XRPD - 7 d / physical and chemical stability: 7 days; for physical and chemical stability: 60° C. (capped) and 40° C./75% RH (open); for Initial Purity: before storage, HPLC. As to the method:
(capped) and 40° C./75% RH (open) for 7 days. Duplicate samples were prepared at each condition. The stability sample was dissolved in diluent to prepare solution at ˜1 mg/mL for HPLC purity analysis. Solid samples were analyzed by XRPD to check the crystal form. […] (capped) and 40° C./75% RH (open) for at least 7 days.

Data set [3] is described as follows: Solubility in bio-relevant media (SGF, FaSSIF, FeSSIF) and water. The note with it: for XRPD 0.5 h / XRPD 2 h / XRPD 24 h: filter cake; for solubility compared to Freebase Form I (in words): water, FaSSIF and FeSSIF, 37° C. The procedure: At 0.5, 2 and 24 hours, about 0.6 mL of each suspension was filtered, the filtrate was analyzed by HPLC and pH meter, and the filter cake was analyzed by XRPD. The samples were prepared in duplicate (n=2) per condition. Average value (n=2) was presented.
HPLC analysis was performed with an Agilent HPLC 1260 series instrument.

Setting [4] is: FaSSIF, initial pH 6.45, 37° C., average n=2.
Setting [5] is: FaSSIF, initial pH 6.45, filtrate.
[6] abbreviates: FeSSIF, initial pH 4.99, 37° C., average n=2.
The mark [7] stands for this setting: FeSSIF, initial pH 4.99, filtrate.
Where [8] appears, read: Water, initial pH 5.41, 37° C., average n=2.
Setting [9] is: Water, initial pH 5.41, filtrate.
[10] abbreviates: in FaSSIF and FeSSIF, XRPD of filter cake.

Values joined by “and” are separate entries in the source; they are usually repeats but may differ in a detail not shown here. Equal values may be shown once. “Also recorded” adds a separate entry of the source. Where a name gives a salt, the structure may show the parent alone. Where only a bound is given, the exact number is not on record here.

Here are results for 6 molecules from patent US20240317746A1, “CRYSTALLINE FORMS OF AN AZETIDINE PARP1 INHIBITOR” (XinThera, Inc., priority 2023, published 2024).

Turning to `C[C@@H]1[C@@H](Oc2ccc(C(=O)NC3CC3)nc2)CN1Cc1cnc2cc(Cl)c(=O)[nH]c2c1` [Hemiedisylate Salt Form II, 5-(((2R,3S)-1-((7-chloro-6-oxo-5,6-dihydro-1,5-naphthyridin-3-yl)methyl)-2-methylazetidin-3-yl)oxy)-N-cyclopropylpicolinamide], in data set [1], the “hygroscopicity (in words)” value is “hygroscopic”. In addition, in data set [1] (from 0 to 90% RH at 25° C.), the water uptake result is “about 3.6%”.

As for `C[C@@H]1[C@@H](Oc2ccc(C(=O)NC3CC3)nc2)CN1Cc1cnc2cc(Cl)c(=O)[nH]c2c1` [L-Malate Salt Form II, 5-(((2R,3S)-1-((7-chloro-6-oxo-5,6-dihydro-1,5-naphthyridin-3-yl)methyl)-2-methylazetidin-3-yl)oxy)-N-cyclopropylpicolinamide], the “hygroscopicity (in words)” value in data set [1] was “hygroscopic”. Further, the water uptake result in data set [1] (from 0 to 90% RH at 25° C.) is “about 4.6%”.

Consider `C[C@@H]1[C@@H](Oc2ccc(C(=O)NC3CC3)nc2)CN1Cc1cnc2cc(Cl)c(=O)[nH]c2c1` [L-Tartrate Salt Form II, 5-(((2R,3S)-1-((7-chloro-6-oxo-5,6-dihydro-1,5-naphthyridin-3-yl)methyl)-2-methylazetidin-3-yl)oxy)-N-cyclopropylpicolinamide], for which the “hygroscopicity (in words)” value in data set [1] was “hygroscopic”. Further, the water uptake entry in data set [1] (from 0 to 90% RH at 25° C.) is on record as “about 10.2%”.

A word on the solubility: it is the dissolved amount per volume that the medium holds. For the molecule `C[C@@H]1[C@@H](Oc2ccc(C(=O)NC3CC3)nc2)CN1Cc1cnc2cc(Cl)c(=O)[nH]c2c1` [Maleate Form IV, 5-(((2R,3S)-1-((7-chloro-6-oxo-5,6-dihydro-1,5-naphthyridin-3-yl)methyl)-2-methylazetidin-3-yl)oxy)-N-cyclopropylpicolinamide], the “hygroscopicity (in words)” value in data set [1] is listed as “slightly hygroscopic”. Further, the water uptake in data set [1] (at 80% RH) is < 1% and 0.6%; in data set [1] (at 90% RH), 0.9%. For the same molecule, the “XRPD - 7 d” value in data set [2] (40° C./75% RH (open)) and in data set [2] (60° C. (capped)) was “Unchanged” throughout. The “physical and chemical stability” value in data set [2] is “physically and chemically stable”. Moreover, the “Initial Purity” value in data set [2] was found to be 99.72 area %. Also, the “XRPD 0.5 h” value in data set [3] (FaSSIF) and in data set [3] (FeSSIF) was “FB Form I” in each case. In addition, the “XRPD 2 h” value in data set [3] (FaSSIF) and in data set [3] (FeSSIF) was “FB Form I” each time. Moreover, the “XRPD 24 h” value in data set [3] (FaSSIF) and in data set [3] (FeSSIF) was “FB Form I” each time. The figures for the “Solubility 0.5 h” value in data set [3] (setting [4]), in data set [3] (setting [6]) and in data set [3] (setting [8]) were 397 µg/mL, 369 µg/mL and 4527 µg/mL, respectively. Besides, the “Solubility 2 h” value in data set [3] (setting [4]) was 410 µg/mL; in data set [3] (setting [6]), 159 µg/mL; in data set [3] (setting [8]), 4494 µg/mL. For the same molecule, the “Solubility 24 h” value in data set [3] (setting [4]) came out at 373 µg/mL; in data set [3] (setting [8]), 3797 µg/mL. The “pH 0.5 h” value in data set [3] (setting [5]) is on record as 4.58; in data set [3] (setting [7]), 4.82; in data set [3] (SGF, initial pH 1.23, filtrate), 1.33; in data set [3] (setting [9]) it was 3.81. For the same molecule, the “pH 2 h” value in data set [3] (setting [5]) amounted to 4.46; in data set [3] (setting [7]), 4.82; in data set [3] (SGF, initial pH 1.23, filtrate) it was 1.17; in data set [3] (setting [9]), 3.75. Moreover, the “pH 24 h” value in data set [3] (setting [5]) stood at 4.43; in data set [3] (setting [7]), 4.79; in data set [3] (SGF, initial pH 1.23, filtrate) it was 1.22; in data set [3] (setting [9]) it was 3.90. In addition, in data set [3] (FeSSIF, 37 °C, pH 4.99, fessif, thermodynamic from solid, initial pH 4.99, 37° C., average n=2), the solubility at 24 h came to 131 µg/mL. For the same molecule, the figures for the “XRPD 0.5 h, 2 h, 24 h” value in data set [3] (SGF) and in data set [3] (Water) were “Clear” and “Little solid”, respectively. In data set [3] (SGF, 37 °C, pH 1.23, simulated gastric fluid, thermodynamic from solid, SGF, initial pH 1.23, 37° C., read-out: Solubility 0.5 h, 2 h, 24 h), the solubility was greater than 5000 µg/mL. Also, the “form change of the solid” value in data set [3] (setting [10]) is “dissociated into Freebase Form I”. In data set [3], the “solubility compared to Freebase Form I (in words)” value is given as “improved solubility”.

On to `C[C@@H]1[C@@H](Oc2ccc(C(=O)NC3CC3)nc2)CN1Cc1cnc2cc(Cl)c(=O)[nH]c2c1` [Sulfate Salt Form III, 5-(((2R,3S)-1-((7-chloro-6-oxo-5,6-dihydro-1,5-naphthyridin-3-yl)methyl)-2-methylazetidin-3-yl)oxy)-N-cyclopropylpicolinamide], for which the “hygroscopicity (in words)” value in data set [1] was “hygroscopic”. In addition, in data set [1] (from 0 to 90% RH at 25° C.), the water uptake result was “about 6%”.

With `C[C@@H]1[C@@H](Oc2ccc(C(=O)NC3CC3)nc2)CN1Cc1cnc2cc(Cl)c(=O)[nH]c2c1` [Tartrate Form I, 5-(((2R,3S)-1-((7-chloro-6-oxo-5,6-dihydro-1,5-naphthyridin-3-yl)methyl)-2-methylazetidin-3-yl)oxy)-N-cyclopropylpicolinamide], the “hygroscopicity (in words)” value in data set [1] and in data set [1] (listed as Tartrate Salt Form I) was “slightly hygroscopic” throughout. Also, the water uptake in data set [1] (at 80% RH) is < 1% and 0.8%; in data set [1] (at 90% RH) it was 1.4%; in data set [1] (from 0 to 90% RH at 25° C., listed as Tartrate Salt Form I), “about 1.1%”. The “XRPD - 7 d” value in data set [2] (40° C./75% RH (open)) and in data set [2] (60° C. (capped)) was “Unchanged” throughout. Further, in data set [2], the “physical and chemical stability” value was “physically and chemically stable”. Further, in data set [2], the “Initial Purity” value came out at 99.64 area %. In addition, the entries for the “XRPD 0.5 h” value in data set [3] (FaSSIF), in data set [3] (FeSSIF) and in data set [3] (Water) were “Amorphous”, “Amorphous” and “Unchanged”, respectively. Moreover, the “XRPD 2 h” value in data set [3] (FaSSIF) was “FB Form I”; in data set [3] (FeSSIF), “FB Form I”; in data set [3] (Water), “Unchanged”. In addition, the “XRPD 24 h” value in data set [3] (FaSSIF) and in data set [3] (FeSSIF) was “FB Form I” in each case. Also, the “Solubility 0.5 h” value in data set [3] (setting [4]) was determined as 2088 µg/mL; in data set [3] (setting [6]), 496 µg/mL; in data set [3] (setting [8]), 4288 µg/mL. Besides, the entries for the “Solubility 2 h” value in data set [3] (setting [4]), in data set [3] (setting [6]) and in data set [3] (setting [8]) were 1320 µg/mL, 207 µg/mL and 4422 µg/mL, respectively. The results for the “Solubility 24 h” value in data set [3] (setting [4]), in data set [3] (setting [6]) and in data set [3] (setting [8]) were 980 µg/mL, 144 µg/mL and 293 µg/mL, respectively. Besides, the “pH 0.5 h” value is given as 3.98 in data set [3] (setting [5]); 4.71 in data set [3] (setting [7]); 1.32 in data set [3] (SGF, initial pH 1.23, filtrate); 3.63 in data set [3] (setting [9]). Besides, the “pH 2 h” value in data set [3] (setting [5]) is recorded as 3.81; in data set [3] (setting [7]) it was 4.71; in data set [3] (SGF, initial pH 1.23, filtrate) it was 1.17; in data set [3] (setting [9]), 3.58. The “pH 24 h” value stood at 3.69 in data set [3] (setting [5]); 4.70 in data set [3] (setting [7]); 1.25 in data set [3] (SGF, initial pH 1.23, filtrate); 3.73 in data set [3] (setting [9]). Besides, the “XRPD 0.5 h, 2 h, 24 h” value in data set [3] (SGF) is reported as “Clear”. The “Solubility 0.5 h, 2 h, 24 h” value in data set [3] (SGF, initial pH 1.23, 37° C.) is greater than 5000 µg/mL. For the same molecule, the “form change of the solid” value in data set [3] (setting [10]) is listed as “dissociated into Freebase Form I”; in data set [3] (in water at 24 h) it was “converted into a new pattern”. Besides, the “conversion rate to the freebase (in words)” value in data set [3] (in FaSSIF and FeSSIF, compared with Maleate Form IV) is reported as “slower conversion rate; also recorded: slower form conversion”. In addition, the “solubility compared to Freebase Form I (in words)” value in data set [3] is recorded as “improved solubility”.
